In patent US20060178374A1, “Aminoheteroaryl compounds as protein kinase inhibitors” (AGOURON PHARMACEUTICALS, INC., priority 2004, published 2006):

target: HGFR (c-Met) (Homo sapiens, UniProt P08581); test: HGFR Continuous-Coupled Spectrophotometric Assay; assay type: biochemical; conditions: HGFR enzyme 50 nM, Met-2 peptide substrate, 37° C.
Method: The general procedure is as follows: compounds and kinase assay reagents are introduced into test wells. The assay is initiated by addition of the kinase enzyme. Enzyme inhibitors reduce the measured activity of the enzyme.
In the continuous-coupled spectrophotometric assay the time-dependent production of ADP by the kinase is determined by analysis of the rate of consumption of NADH by measurement of the decrease in absorbance at 340 nm. As the PK produces ADP it is re-converted to ATP by reaction with phosphoenol pyruvate and pyruvate kinase. Pyruvate is also produced in this reaction. Pyruvate is subsequently converted to lactate by reaction with lactate dehydrogenase, which simultaneously converts NADH to NAD.
HGFR Continuous-Coupled Spectrophotometric Assay
This assay analyzes the tyrosine kinase activity of HGFR on the Met-2 substrate peptide, a peptide derived from the activation loop of the HGFR.
• 1. […] Dissolve up in 200 mM HEPES, pH 7.5 at 10 mM stock. • 3. 1 M PEP (phospho-enol-pyruvate) in 200 mM HEPES, pH 7.5 • 4. 100 mM NADH (B-Nicotinamide Adenine Dinucleotide, Reduced Form) in 200 mM HEPES, pH 7.5 • 5. 4 M MgCl2 (Magnesium Chloride) in ddH2O 6. 1 M DTT (Dithiothreitol) in 200 mM HEPES, pH 7.5 • 7. 15 Units/mL LDH (Lactic Dehydrogenase) • 8. 15 Units/mL PK (Pyruvate Kinase) • 9. 5M NaCl dissolved in ddH2O • 10. Tween-20 (Protein Grade) 10% Solution • 11. 1 M HEPES buffer: (N-[2-Hydroxethyl]piperazine-N-[2-ethanesulfonic acid]) Sodium Salt. Dissolve in ddH2O, adjust pH to 7.5, bring volume to 1 L. Filter at 0.1 μm. • 12. […] 100% DMSO (SIGMA) • 14. […] Beckman DU-650 w/ micro cell holders • 18. Beckman 4-position micro cell cuvette Procedure:
Prep Dilution Buffer (DB) for Enzyme (For 30 mL prep) • 1. DB final concentration is 2 mM DTT, 25 mM NaCl2, 5 mM MgCl2, 0.01% Tween-20, and 50 mM HEPES buffer, pH 7.5. • 2. Make up 50 mM HEPES by adding 1.5 mL 1 M HEPES into 28.1 mL of ddH2O. Add rest of the reagents. Into 50 mL conical vial, add 60 μL of 1M DTT, 150 μL 5M NaCl2, 150 μL 1M MgCl2, and 30 μL of 10% Tween-20 to give total volume of 30 mL. • 3. Vortex for 5-10 seconds. • 4. Aliquot out DB at 1 mL/tube and label tubes as “DB HGFR” • 5. Note: This can be prepared and stored ahead of time. • 6. Freeze un-used aliquots in microcentrifuge tubes at −20° C. freezer.
Prep Compounds • 1. For compound dilution plate, add 4 μL of 10 mM stock into column 1 of plate, and bring volume to 100 μL with 100% DMSO. • 2. Set up the Precision 2000 dilution method. A final concentration of 200 μM compound in 50% DMSO, 100 mM HEPES (1:2 serial dilution).
Prep Coupled Enzymatic Buffer:
1. Final concentration in assay:
• 2. For a 10 mL reaction buffer add 10 μL of 1M PEP, 33 μL of 100 mM NADH, 50 μL of 4M MgCl2, 20 μL of 1M DTT, 6 μL of 500 mM ATP, and […] of 10 mM Met-2 peptide into 100 mM HEPES buffer pH 7.5 and vortex/mix. • 3. Add coupling enzymes, LDH and PK, into reaction mix. Mix by gentle inversion.
1. Spectrophotometer settings:
• 2. Add 85 μL of CE reaction mix into each well of assay plate. • 3. Add 5 μL of diluted compound into a well of the assay plate. • 4. Add 5 μL of 50% DMSO for negative control into last column of assay plate. • 5. Mix with multi-channel pipettor or orbital shaker. • 6. Pre-incubate for 10 minutes at 37° C. • 7. Add 10 μL of 500 nM HGFR to each well of assay plate; the final HGFR concentration is 50 nM in a total final volume of 100 μL. • 8. Measure activity for 10 minutes at λ=340 nm and 37° C.
Ki data were obtained using the HGFR Continuous-Coupled Spectrophotometric Assay, and IC50 data were obtained using the Cellular HGFR Autophosphorylation Assay, both of which are described above.

Sequence of HGFR (c-Met) (P08581 974-1390): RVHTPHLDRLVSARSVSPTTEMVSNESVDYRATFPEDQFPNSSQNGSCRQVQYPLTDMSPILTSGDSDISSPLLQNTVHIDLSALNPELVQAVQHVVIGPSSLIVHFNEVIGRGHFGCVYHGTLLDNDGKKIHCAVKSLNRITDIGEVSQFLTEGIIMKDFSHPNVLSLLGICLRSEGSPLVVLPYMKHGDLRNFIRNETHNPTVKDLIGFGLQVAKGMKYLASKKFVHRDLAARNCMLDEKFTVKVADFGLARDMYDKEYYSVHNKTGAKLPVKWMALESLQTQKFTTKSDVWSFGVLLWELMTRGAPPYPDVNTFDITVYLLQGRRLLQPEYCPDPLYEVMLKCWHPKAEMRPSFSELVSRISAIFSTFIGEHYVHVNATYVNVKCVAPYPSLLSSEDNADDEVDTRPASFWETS

Ki [nM] | Compound
160 | COc1ncc(-c2cnc(N)c(OC(C)c3c(Cl)ccc(OC)c3Cl)c2)cn1 (centres unmarked) [Example 117, 3-[1-(2,6-dichloro-3-methoxyphenyl)ethoxy]-5-(2-methoxypyrimidin-5-yl)pyridin-2-amine]
370 | COc1ccc(-c2cnc(N)c(OC(C)c3c(Cl)ccc(F)c3Cl)c2)cc1CC#N (centres unmarked) [Example 149, (5-{6-amino-5-[1-(2,6-dichloro-3-fluorophenyl)ethoxy]pyridin-3-yl}-2-methoxyphenyl) acetonitrile]
25 | CC(Oc1cc(-c2ccc(C3CCNCC3)cc2)cnc1N)c1c(Cl)ccc(F)c1Cl (centres unmarked) [Example 125, 3-[1-(2,6-dichloro-3-fluorophenyl)ethoxy]-5-(4-piperidin-4-ylphenyl)pyridin-2-amine]
2090 | CC(Oc1cc(Br)cnc1N)c1c(C#N)ccc(F)c1Cl (centres unmarked) [Example 51, 2-[1-(2-Amino-5-bromo-pyridin-3-yloxy)-ethyl]-3-chloro-4-fluoro-benzonitrile]
10 | C[C@@H](Oc1cc(-c2ccc(C(=O)N(C)CCCN(C)C)cc2)cnc1N)c1c(Cl)ccc(F)c1Cl [Example 128, 4-{6-amino-5-[(1 R^15)-1-(2,6-dichloro-3-fluorophenyl)ethoxy]pyridin-3-yl}-N-[3-(dimethylamino)propyl]-N-methylbenzamide]
37 | CC(Oc1cc(-c2ccc(CC(=O)N3CCNCC3)cc2)cnc1N)c1c(Cl)ccc(F)c1Cl (centres unmarked) [Example 100, 2-(4-{6-Amino-5-[1-(2,6-dichloro-3-fluoro-phenyl)-ethoxy]-pyridin-3-yl}-phenyl)-1-piperazin-1-yl-ethanone]
324 | CC(Oc1cc(-c2ccc(C(=O)N3C[C@@H](C)N[C@@H](C)C3)cc2)cnc1N)c1c(Cl)ccc(Cl)c1F (some centres unmarked) [Example 97, (4-{6-Amino-5-[1-(3,6-dichloro-2-fluoro-phenyl)-ethoxy]-pyridin-3-yl}-phenyl)-(3,5-dimethyl-piperazin-1-yl)-methanone]
53 | CC(Oc1cc(-c2cnc(N3CCNCC3)nc2)cnc1N)c1c(Cl)ccc(F)c1Cl (centres unmarked) [Example 121, 3-[1-(2,6-dichloro-3-fluorophenyl)ethoxy]-5-(2-piperazin-1-ylpyrimidin-5-yl)pyridin-2-amine]
10 | C[C@@H](Oc1cc(-c2ccc(C(=O)N3CCNCC3)cc2)cnc1N)c1c(Cl)ccc(F)c1Cl [Example 104, 3-[(1R)-1-(2,6-dichloro-3-fluorophenyl)ethoxy]-5-[4-(piperazin-1-ylcarbonyl)phenyl] pyridin-2-amine]
40 | CC(Oc1cc(-c2ccc3nc(C(=O)N(C)C)cn3c2)cnc1N)c1c(Cl)ccc(F)c1Cl (centres unmarked) [Example 155, 6-{6-amino-5-[1-(2,6-dichloro-3-fluorophenyl)ethoxy]pyridin-3-yl}-N,N-dimethylimidazo[1,2-a]pyridine-2-carboxamide]
153 | CC(Oc1cc(-c2ccc3c(ccn3C)c2)cnc1N)c1c(Cl)ccc(F)c1Cl (centres unmarked) [Example 148, 3-[1-(2,6-dichloro-3-fluorophenyl)ethoxy]-5-(1-methyl-1H-indol-5-yl)pyridin-2-amine]
360 | CC(Oc1cc(-c2cncnc2)cnc1N)c1c(Cl)ccc(F)c1Cl (centres unmarked) [Example 113, 3-[1-(2,6-dichloro-3-fluorophenyl)ethoxy]-5-pyrimidin-5-ylpyridin-2-amine]
59 | CC(Oc1cc(-c2cccc(C(=O)N(C)C)c2)cnc1N)c1c(Cl)ccc(F)c1Cl (centres unmarked) [Example 142]
48 | CC(Oc1cc(-c2ccc(C(=O)NCC3CCNCC3)cc2)cnc1N)c1c(Cl)ccc(F)c1Cl (centres unmarked) [Example 13, 4-{6-Amino-5-[1-(2,6-dichloro-3-fluorophenyl)ethoxy]pyridin-3-yl}-N-(piperidin-4-ylmethyl)benzamide]
1500 | CC(Oc1cc(-c2cnc(Cl)nc2)cnc1N)c1c(Cl)ccc(F)c1Cl (centres unmarked) [Example 115, 5-(2-chloropyrimidin-5-yl)-3-[1-(2,6-dichloro-3-fluorophenyl)ethoxy]pyridin-2-amine]
20 | CC(Oc1cc(-c2ccc(C(=O)N3CC[N@]4C[C@H]3C4)cc2)cnc1N)c1c(Cl)ccc(F)c1Cl (some centres unmarked) [Example 8, 5-[4-(1,4-Diazabicyclo[3.1.1]hept-4-ylcarbonyl)phenyl]-3-[1-(2,6-dichloro-3-fluorophenyl)ethoxy]pyridin-2-amine]
335 | C[C@@H](Oc1nc(-c2ccc(C(=O)N3CCN(C(=O)OC(C)(C)C)CC3)cc2)cnc1N)c1c(Cl)ccc(F)c1Cl [Example 49, 4-(4-{5-Amino-6-[(R)-1-(2,6-dichloro-3-fluoro-phenyl)-ethoxy]-pyrazin-2-yl}-benzoyl)-piperazine-1-carboxylic acid tert-butyl ester]
69 | CC(Oc1cc(-c2cccc(CN)c2)cnc1N)c1c(Cl)ccc(F)c1Cl (centres unmarked) [Example 132, 5-[3-(aminomethyl)phenyl]-3-[1-(2,6-dichloro-3-fluorophenyl)ethoxy]pyridin-2-amine]
1840 | CC(Oc1cc(Br)cnc1N)c1c(C#N)ccc(N(C)C)c1Cl (centres unmarked) [Example 50, 2-{1-[(2-amino-5-bromopyridin-3-yl)oxy]ethyl}-3-chloro-4-(dimethylamino)benzonitrile]
2090 | CCOC(=O)c1[nH]c(C)c(-c2cnc(N)c(OC(C)c3c(Cl)ccc(F)c3Cl)c2)c1C (centres unmarked) [Example 41, 4-{6-Amino-5-[1-(2,6-dichloro-3-fluoro-phenyl)-ethoxy]-pyridin-3-yl}-3,5-dimethyl-1H-pyrrole-2-carboxylic acid ethyl ester]
68 | CC(Oc1cc(-c2ccc(C(=O)NCCN)cc2)cnc1N)c1c(Cl)ccc(F)c1Cl (centres unmarked) [Example 17, 4-{6-Amino-5-[1-(2,6-dichloro-3-fluorophenyl)ethoxy]pyridin-3-yl}N-(2-aminoethyl) benzamide]
52 | CC(Oc1cc(-c2cccc(CNC(=O)CN(C)C)c2)cnc1N)c1c(Cl)ccc(F)c1Cl (centres unmarked) [Example 70, N-(3-{6-Amino-5-[1-(2,6-dichloro-3-fluoro-phenyl)-ethoxy]-pyridin-3-yl}-benzyl)-2-dimethylamino-acetamide]
1690 | COc1cc(C(=O)Nc2cnc(N)c(OC(C)c3c(Cl)ccc(F)c3Cl)c2)ccn1 (centres unmarked) [Example 92, N-{6-Amino-5-[1-(2,6-dichloro-3-fluoro-phenyl)-ethoxy]-pyridin-3-yl}-2-methoxy-isonicotinamide]
36 | CCNCCNC(=O)c1ccc(-c2cnc(N)c(OC(C)c3c(Cl)ccc(F)c3Cl)c2)cc1 (centres unmarked) [Example 18, 4-{6-Amino-5-[1-(2,6-dichloro-3-fluorophenyl)ethoxy]pyridin-3-yl}-N-[2-(ethylamino)ethyl]benzamide]
910 | CC(Oc1cc(N2CCCC2=O)cnc1N)c1c(Cl)ccc(F)c1Cl (centres unmarked) [Example 90, N-{6-Amino-5-[1-(2,6-dichloro-3-fluoro-phenyl)-ethoxy]-pyridin-3-yl}-pyrrolidin-2-one]

same assay, conditions: compound at 1 μM

inhibition at 1 µM [%] | Compound
87 | CC(Oc1cc(-c2ccc(C(=O)NCC3CCNCC3)cc2)cnc1N)c1c(Cl)ccc(F)c1Cl (centres unmarked) [Example 13, 4-{6-Amino-5-[1-(2,6-dichloro-3-fluorophenyl)ethoxy]pyridin-3-yl}-N-(piperidin-4-ylmethyl)benzamide]
94 | CC(Oc1cc(-c2ccc(C(=O)N3CC[N@]4C[C@H]3C4)cc2)cnc1N)c1c(Cl)ccc(F)c1Cl (some centres unmarked) [Example 8, 5-[4-(1,4-Diazabicyclo[3.1.1]hept-4-ylcarbonyl)phenyl]-3-[1-(2,6-dichloro-3-fluorophenyl)ethoxy]pyridin-2-amine]
90 | CC(Oc1cc(-c2ccc(C(=O)NCCN)cc2)cnc1N)c1c(Cl)ccc(F)c1Cl (centres unmarked) [Example 17, 4-{6-Amino-5-[1-(2,6-dichloro-3-fluorophenyl)ethoxy]pyridin-3-yl}N-(2-aminoethyl) benzamide]
90 | CCNCCNC(=O)c1ccc(-c2cnc(N)c(OC(C)c3c(Cl)ccc(F)c3Cl)c2)cc1 (centres unmarked) [Example 18, 4-{6-Amino-5-[1-(2,6-dichloro-3-fluorophenyl)ethoxy]pyridin-3-yl}-N-[2-(ethylamino)ethyl]benzamide]
